Experimental data published in patent US20250019389A1, “HETEROCYCLIC AGONISTS” (Gasherbrum Bio, Inc., priority 2023, published 2025).

Each compound was assayed against GLP-1 Receptor (Homo sapiens (Human), UniProt P43220) (assay: GLP-1R agonist cAMP stimulation assay). Conditions: cAMP stimulation in HEK293/GLP1R/CRE-LUC cells, 30 min at 37° C., cAMP dynamic 2 Kit (Cisbio).
Assay type: cell-based
Protocol: Activation of GLP-1 receptor is known to stimulate cyclic AMP (cAMP) production in cells which indicates primary coupling to the G as subunit of the G protein heterotrimeric complex.
To optimize functional activity directed toward G αs coupling, a HEK293/CRE-Luc cell line developed by HDB stably expressing the GLP-1 Receptor was used. 200× concentration of compound working solutions were prepared (Agilent Technologies Bravo) with ½ log serial dilution in 384-well Echo LDV plate (Labcyte, Cat #LP-0200). 50 nL/well 200× concentration of compound working solutions were moved to 384-well white low volume plate (Greiner, Cat #784075) using Labcyte ECH0550.1×10^5 cells/mL HEK293/GLP1R/CRE-LUC (HD Biosciences) cell suspensions prepared with assay buffer [DPBS containing 0.5 mM IBMX (Sigma, Cat #I5879) and 0.1% BSA (GENVIEW, Cat #FA016-100 g)], 10 μL cell suspensions were added to each well of previous generated assay plate which already contains 50 nL compound at 200× concentration using ThermoFisher Multidrop Combi (1000 cells/well). Seal the plate and incubate at 37° C. with 5% CO2 for 30 min.
After incubation the cAMP assay signal was generated using cAMP dynamic 2 Kit (Cisbio). 5 μL cAMP-d2 working solution was added to each well, followed with 5 μL Anti-cAMP antibody-cryptate working solution added to each well using ThermoFisher Multidrop Combi. Incubate at room temperature for 1 hour protected from light. Read the fluorescence at 665 and 615 nm with Reader PerkinElmer EnVision.

GLP-1 Receptor, sequence (P43220 24-463, species assumed): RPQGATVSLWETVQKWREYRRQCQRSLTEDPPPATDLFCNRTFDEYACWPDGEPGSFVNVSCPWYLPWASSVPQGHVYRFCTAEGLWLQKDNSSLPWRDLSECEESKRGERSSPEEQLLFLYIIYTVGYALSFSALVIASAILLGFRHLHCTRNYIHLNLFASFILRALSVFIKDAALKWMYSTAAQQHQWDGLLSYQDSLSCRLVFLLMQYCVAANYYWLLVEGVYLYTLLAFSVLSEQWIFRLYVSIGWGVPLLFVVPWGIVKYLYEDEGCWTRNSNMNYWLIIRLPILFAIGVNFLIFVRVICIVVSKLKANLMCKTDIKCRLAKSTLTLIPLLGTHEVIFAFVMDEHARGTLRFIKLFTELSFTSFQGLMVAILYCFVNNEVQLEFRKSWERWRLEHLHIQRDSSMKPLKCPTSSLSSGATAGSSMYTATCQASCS

In order of falling EC50:
1. CCP(=O)(c1ccc(-n2ccn(-c3c4c(nn3-c3cc(C)c(F)c(C)c3)CCN(C(=O)c3cc5cc(C6CCOCC6)ccc5n3[C@@]3(c5noc(=O)[nH]5)C[C@@H]3C)[C@H]4C)c2=O)cc1NC)C(C)O (single isomer, unassigned) [Compound 107]  0.042 nM
2. CCP(=O)(c1ccc(-n2ccn(-c3c4c(nn3-c3cc(C)c(F)c(C)c3)CCN(C(=O)c3cc5cc(C6CCOCC6)ccc5n3[C@@]3(c5noc(=O)[nH]5)C[C@@H]3C)[C@H]4C)c2=O)cc1NC)C(C)O (single isomer, unassigned) [Compound 105]  0.035 nM
3. CCP(=O)(c1ccc(-n2ccn(-c3c4c(nn3-c3cc(C)c(F)c(C)c3)CCN(C(=O)c3cc5cc(C6CCOCC6)ccc5n3[C@@]3(c5noc(=O)[nH]5)C[C@@H]3C)[C@H]4C)c2=O)cc1NC)C(C)O (single isomer, unassigned) [Compound 108]  0.031 nM
4. CCP(=O)(c1ccc(-n2ccn(-c3c4c(nn3-c3cc(C)c(F)c(C)c3)CCN(C(=O)c3cc5cc(C6CCOCC6)ccc5n3[C@@]3(c5noc(=O)[nH]5)C[C@@H]3C)[C@H]4C)c2=O)cc1NC)C(C)O (single isomer, unassigned) [Compound 106]  0.029 nM
5. CCP(=O)(CCO)c1ccc(-n2ccn(-c3c4c(nn3-c3cc(C)c(F)c(C)c3)CCN(C(=O)c3cc5cc(C6CCOCC6)ccc5n3[C@@]3(c5noc(=O)[nH]5)C[C@@H]3C)[C@H]4C)c2=O)cc1NC (single isomer, unassigned) [Compound 102]  0.017 nM
6. CCP(=O)(CCO)c1ccc(-n2ccn(-c3c4c(nn3-c3cc(C)c(F)c(C)c3)CCN(C(=O)c3cc5cc(C6CCOCC6)ccc5n3[C@@]3(c5noc(=O)[nH]5)C[C@@H]3C)[C@H]4C)c2=O)cc1NC (single isomer, unassigned) [Compound 103]  0.012 nM
